# Assay results: patent US4753958A, “Photochemotherapy of epithelial diseases with derivatives of hematoporphyrins” (priority 1986, dated 1988)
# Experiments:
# guinea pig skin [1] = assay: Cutaneous phototoxicity after intradermal administration and UVA (minimum phototoxic dose); assay type: in vivo; conditions: intradermal 5-500 μg/0.1 ml; UVA 20 J/cm^2 6 hours post injection
# Experimental: (§1) HPD, DHE, hematoporphyrin and protoporphyrin were provided by Dr. Thomas J. Dougherty, Roswell Park Memorial Institute, Buffalo, NY. Hydroxyvinyldeuteroporphyrin was obtained from Porphyrin Products, Salt Lake City, UT.
# (§2) Drugs were administered intradermally at doses ranging from 5-500 μg/0.1 ml. Sites were then treated with UVA (20 J/cm^2) 6 hours post drug injection.
# guinea pig skin [2] = assay: Cutaneous phototoxicity after systemic (I.P.) administration and UVA; assay type: in vivo, Guinea pigs; conditions: 10 mg/kg I.P., graded 24 hours post light
# Experimental: as §1
# Guinea pigs were treated systemically (I.P.) with the various porphyrins, each at a dose of 10 mg/kg. Animals were then irradiated with UVA (20 J/cm^2), either at 6 hours or 24 hours post drug administration. Erythema was graded at 24 hours post light treatment.
# malignant cells = conditions: HPD enriched for DHE, administered systemically; cited from earlier work
# guinea pig skin [3] = assay: Drug/UVA dosimetry with intradermal HPD and DHE; assay type: in vivo
# Experimental: as §1, §2
# Additional studies were done with intradermal HPD and DHE to study the drug/UVA dosimetry.
# epidermal DNA synthesis = assay: Effect of topical DHE plus UVA on epidermal DNA synthesis in vivo; design: species or system Mini-pigs
# Experimental: The topical activity of DHE was evaluated in vivo in a mini-pig model.
# Mini-pigs were obtained from Charles River Laboratories, Inc. (Wilmington, MA). Drug preparations were applied to small areas of dorsal skin (ca 1 inch square) according to the selected application schedules. Six hours following the last drug application, tritiated thymidine was injected into the drug treatment sites for autoradiographic assessment of epidermal proliferation as measured by epidermal labeling index. Weinstein & Van Scott, (1965) J. Invest. Derm. 44:413.
# DHE was acid precipitated from a Photofrin II solution by adjusting the pH to 3.5. The precipitated DHA was washed extensively with distilled water until the pH of the filtrate reached 6.0. The DHE powder was vacuum dried, reconstituted in distilled water, and the pH adjusted to 7.0. Aqueous DHE was then mixed with isopropanol and Azone. […] This formulation was applied to selected areas of mini-pig skin approximately 6 hours before irradiation with UVA. Epidermal DNA synthesis was assayed as described above. At 0, 24, 48, and 72 hours post-irradiation, the animals were injected at the selected sites with isotopic precursors (tritiated thymidine). The animals were biopsied one hour after isotopic injection.
# skin cancers = conditions: cited from earlier work
# psoriasis = conditions: oral methoxysalen plus long-wave ultraviolet light (PUVA); cited from earlier work
molecule,measurement,setting,value
Hydroxyvinyldeuteroporphyrin,minimum phototoxic dose,guinea pig skin [1],> 500 µg
same,erythema response,guinea pig skin [2]; UVA 20 J/cm^2 at 6 hours,No response
dihematoporphyrin ether [DHE],phototoxicity toward malignant cells,malignant cells,phototoxic properties toward malignant cells
same,"erythema, UVA at 24 hours vs 6 hours post injection",guinea pig skin [3]; intradermal,more pronounced erythema
same,UVA dose effective in producing erythema,guinea pig skin [3]; intradermal DHE 5 μg/cm^2,1 J/cm^2
same,erythema response compared with HPD,"guinea pig skin [3]; intradermal DHE 5 μg/cm^2, comparable treatments",slightly greater than with comparable treatments with HPD
same,"area of erythema, UVA at 24 hours vs 6 hours post injection","guinea pig skin [3]; intradermal, local drug diffusion from injection site",larger area of erythema
same,minimum phototoxic dose,guinea pig skin [1],5 µg
same,erythema response,guinea pig skin [2]; UVA 20 J/cm^2 at 6 hours,significant response
same,erythema response,"guinea pig skin [2]; UVA 20 J/cm^2 at 24 hours, compared with 6 hours for HPD and DHE",greater
same,time of maximum effect post light treatment,"epidermal DNA synthesis; 1% DHE topical plus UVA, autoradiographically and clinically",72 h
same,inhibition of DNA synthesis compared to vehicle control plus UVA,"epidermal DNA synthesis; 1% DHE topical, 48% isopropanol, 4% Azone, 48% water, 5-10 applications plus UVA, FIG. 1",significant inhibition of DNA synthesis
COc1c2occc2cc2ccc(=O)oc12 [methoxysalen],skin cancers in patients following PUVA,skin cancers,increased pattern of skin cancers
same,clinical effectiveness in psoriasis,psoriasis,relatively effective for the majority of patients
C=CC1=C(C)c2cc3[nH]c(cc4nc(cc5[nH]c(cc1n2)c(C)c5CCC(=O)O)C(CCC(=O)O)=C4C)c(C)c3C=C [protoporphyrin],erythema response,guinea pig skin [2]; UVA 20 J/cm^2 at 6 hours,No response
CC1=C(CCC(=O)O)c2cc3[nH]c(cc4nc(cc5[nH]c(cc1n2)c(C)c5C(C)O)C(C)=C4C(C)O)c(C)c3CCC(=O)O (stereo not shown) [hematoporphyrin],erythema response,guinea pig skin [2]; UVA 20 J/cm^2 at 6 hours,mild response
